The record followed here is PubChem BioAssay (NCI).

Test systems include SK-MEL-28 melanoma; NCI/ADR-RES ovarian; SF-295 CNS; NCI-H23 lung; MDA-MB-231 breast; EKVX NSCLC; OVCAR-5 ovarian; SK-MEL-2 melanoma; A498 renal; OVCAR-3 ovarian.
Common to all, as to experiment: inhibition of tumour cell growth, NCI panel, 48 h

Molecules are shown by their SMILES.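 Five compound concentrations were applied to cells in 96-well plates for 48 hours; endpoints were derived by simple linear interpolation of the resulting dose-response curve. Definition used: TGI = concentration required for complete inhibition of growth.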

In the case of `N#Cc1nc(CCc2nc(C#N)c(N)o2)oc1N`, the TGI in the test on SK-MEL-28 melanoma, in the test with NCI/ADR-RES ovarian, with SF-295 CNS, in the test on NCI-H23 lung, in the test with MDA-MB-231 breast and in the test on EKVX NSCLC was more than 10 µM in each case. Moreover, the TGI in the test on OVCAR-5 ovarian was more than 10 µM.

On to `CC(=O)C(=Cc1cn(C)c(=O)n(C)c1=O)C(C)=O`, for which the TGI amounted to 209 µM in the test on SK-MEL-28 melanoma; 255 µM in the test with SK-MEL-2 melanoma; 286 µM in the test with NCI/ADR-RES ovarian; 254 µM with SF-295 CNS; 194 µM in the test with NCI-H23 lung; 290 µM in the test on A498 renal. Further, the results for the TGI in the test with OVCAR-3 ovarian, with EKVX NSCLC and in the test with OVCAR-5 ovarian were 299 µM, 323 µM and 235 µM, respectively.

For the compound `COc1cc2c(cc1O)C1Cc3ccc(OC)c(O)c3C[N+]1(C)CC2` (stereo not drawn), the TGI in the test with SK-MEL-28 melanoma, with SK-MEL-2 melanoma, in the test on NCI/ADR-RES ovarian, in the test with SF-295 CNS, in the test with NCI-H23 lung and in the test on A498 renal was more than 100 µM each time. The TGI in the test with MDA-MB-231 breast, in the test on EKVX NSCLC and in the test on OVCAR-5 ovarian was more than 100 µM each time.

Turning to `CC1=C(C)C(=O)C(C2=CC(=O)c3ccccc3C2=O)=C(C2=CC(=O)c3ccccc3C2=O)C1=O`, the TGI in the test on SK-MEL-28 melanoma is 23.5 µM; in the test with SK-MEL-2 melanoma it was 24.4 µM; in the test on NCI/ADR-RES ovarian it was more than 100 µM; in the test with SF-295 CNS, more than 55.2 µM; in the test with NCI-H23 lung, 45.5 µM; with A498 renal, 50.8 µM. The TGI with MDA-MB-231 breast was 13.4 µM; in the test on EKVX NSCLC, more than 72 µM; with OVCAR-5 ovarian, more than 100 µM.

Regarding `N#Cc1c(-c2ccc([N+](=O)[O-])cc2)c(C#N)c(=O)n(NS(=O)(=O)c2ccccc2)c1S`, the TGI was more than 100 µM in the test with SK-MEL-28 melanoma; 60.8 µM in the test on SK-MEL-2 melanoma; more than 100 µM in the test on NCI/ADR-RES ovarian; more than 100 µM in the test with SF-295 CNS; more than 100 µM in the test with A498 renal; 44.7 µM with MDA-MB-231 breast. For the same compound, the TGI with EKVX NSCLC and with OVCAR-5 ovarian was more than 100 µM each time.

In the case of `O=C1NC(O)c2cc3ccccc3cc2O1` (stereo not drawn), the TGI in the test with SK-MEL-28 melanoma was more than 100 µM; in the test on NCI/ADR-RES ovarian, more than 100 µM; in the test with SF-295 CNS, more than 100 µM; in the test on NCI-H23 lung, more than 100 µM; in the test with OVCAR-3 ovarian, 88.5 µM; in the test with MDA-MB-231 breast, more than 100 µM. The TGI in the test on EKVX NSCLC and in the test on OVCAR-5 ovarian was more than 100 µM each time.

Consider `CC1=C(CO)C(=O)OC(C(C)C2CCC3C4CC5OC56C(O)C(N5CC5)=CC(=O)C6(C)C4CCC23C)C1` (stereo not drawn), for which the TGI was found to be 31.1 µM with SK-MEL-28 melanoma; 18.1 µM with SK-MEL-2 melanoma; 33.7 µM in the test with SF-295 CNS; 7 µM in the test with NCI-H23 lung; 16.3 µM in the test on A498 renal; 11.7 µM in the test with OVCAR-3 ovarian. The figures for the TGI in the test on EKVX NSCLC and in the test with OVCAR-5 ovarian were 25.6 µM and 31.2 µM, respectively.

Regarding `O=C(O)C(Cc1ccccc1)NCc1c(O)ccc2c(-c3ccccc3)cc(=O)oc12` (stereo not drawn), the TGI in the test on SK-MEL-28 melanoma, in the test with SK-MEL-2 melanoma, in the test on NCI/ADR-RES ovarian, in the test on SF-295 CNS, with NCI-H23 lung and in the test on OVCAR-3 ovarian was more than 100 µM in each case. Further, the TGI in the test with MDA-MB-231 breast, with EKVX NSCLC and in the test on OVCAR-5 ovarian was more than 100 µM throughout.

In the case of `C=C(C)C1CC(=O)C(C)=C(O)C1` (stereo not drawn), the TGI with SK-MEL-28 melanoma, in the test on SK-MEL-2 melanoma, with NCI/ADR-RES ovarian, in the test with SF-295 CNS, in the test with NCI-H23 lung and in the test on MDA-MB-231 breast was more than 100 µM throughout. The TGI with EKVX NSCLC and in the test with OVCAR-5 ovarian was more than 100 µM throughout.

For `COC(=O)[C@]1(c2cc3ccccc3n2S(=O)(=O)c2ccccc2)CC2CN(C(=O)OCc3ccccc3)C1C1OC(C)(C)OC21` (stereo partly drawn), the TGI in the test on SK-MEL-28 melanoma, in the test with SK-MEL-2 melanoma, in the test with NCI/ADR-RES ovarian, in the test on SF-295 CNS, in the test with NCI-H23 lung and with OVCAR-3 ovarian was more than 100 µM in each case. The TGI in the test with MDA-MB-231 breast, in the test on EKVX NSCLC and in the test with OVCAR-5 ovarian was more than 100 µM in each case.

Take `C/C(=N\Nc1nc2ccccc2s1)c1ccncn1`: the TGI with SK-MEL-28 melanoma is more than 100 µM; in the test with SK-MEL-2 melanoma it was 31.8 µM; in the test on NCI/ADR-RES ovarian, 1.67 µM; in the test on SF-295 CNS, 20.5 µM; in the test with NCI-H23 lung it was 5.55 µM; in the test with A498 renal it was more than 100 µM. The TGI is more than 46.9 µM in the test on MDA-MB-231 breast, 10.2 µM in the test with EKVX NSCLC and more than 100 µM in the test with OVCAR-5 ovarian.

As for `O=c1[nH]c(=O)n(COC(CO)CO)cc1-c1ccccc1`, the TGI in the test with SK-MEL-28 melanoma, in the test with SK-MEL-2 melanoma, with NCI/ADR-RES ovarian, in the test on SF-295 CNS, with NCI-H23 lung and in the test on OVCAR-3 ovarian was more than 100 µM in each case. Also, the TGI in the test on MDA-MB-231 breast, in the test with EKVX NSCLC and with OVCAR-5 ovarian was more than 100 µM in each case.

For `NC(=O)CCC(N=c1c2ccccc2n(O)c2ccccc12)C(=O)O` (stereo not drawn), the TGI with SK-MEL-28 melanoma was 89.4 µM; in the test on SK-MEL-2 melanoma it was more than 100 µM; in the test with SF-295 CNS, more than 100 µM; with NCI-H23 lung, more than 100 µM; in the test on A498 renal, more than 100 µM; in the test on OVCAR-3 ovarian, more than 100 µM. The TGI in the test with EKVX NSCLC and with OVCAR-5 ovarian was more than 100 µM throughout.

Turning to `CC(=O)n1[nH]c(=O)n(-c2ccc(Cl)cc2)c1=O`, the TGI in the test with SK-MEL-28 melanoma, in the test with SK-MEL-2 melanoma, in the test on NCI/ADR-RES ovarian, in the test with SF-295 CNS, in the test with NCI-H23 lung and in the test on OVCAR-3 ovarian was more than 100 µM throughout. Moreover, the TGI in the test on MDA-MB-231 breast, with EKVX NSCLC and with OVCAR-5 ovarian was more than 100 µM each time.

For `O=C(CNc1ccccc1C(=O)O)Nn1cnc2ccc(S(=O)(=O)Nc3ccccc3C(=O)O)cc2c1=O`, the TGI in the test with SK-MEL-28 melanoma, with SK-MEL-2 melanoma, in the test on NCI/ADR-RES ovarian, in the test on SF-295 CNS, with NCI-H23 lung and in the test on OVCAR-3 ovarian was more than 100 µM throughout. The TGI in the test on MDA-MB-231 breast, in the test with EKVX NSCLC and in the test with OVCAR-5 ovarian was more than 100 µM each time.
